One series has as its target T1, D2 receptors (Chlorocebus aethiops, UniProt P52702).
T1 construct: expressed in transfected cells; host or cells: COS cells
The experiment in a line: Assay for D2 receptor binding activity (3H-YM 09151-2 displacement). Set-up: species or system African Green monkey. To be noted: COS cell pellets with recombinant receptor; 0.5 nM 3H-YM 09151-2; test compounds are acid addition salts. As to the method: Assay for D2 and D4 Receptor Binding Activity
Pellets of COS cells containing recombinantly produced D2 or D4 receptors from African Green monkey are used for the assays. The sample is homogenized in 100 volumes (w/vol) of 0.05 M Tris HCl buffer at 4° C. and pH 7.4. The sample is then centrifuged at 30,000× g and resuspended and rehomogenized. The sample is again centrifuged as described above and the final tissue sample is frozen until use. The tissue is resuspended 1:20 (wt/vol) in 0.05 M Tris HCl buffer containing 100 mM NaCl.
Incubations are carried out at […] and contain 0.4 ml of tissue sample, 0.5 nM ^3H-YM 09151-2 (Nemonapride, cis-5-Chloro-2-methoxy-4-(methylamino)-N-(2-methyl-2-(phenylmethyl)-3-pyrrolidinyl)benzamide)and the test compound in a total incubation of 1.0 ml. Nonspecific binding is defined as that binding found in the presence of 1 mM spiperone; without further additions, nonspecific binding is less than 20% of total binding. Binding characteristics of examples of the invention for the D2 and D4 receptor subtypes are shown in Table 2 for […].

The structures appear in SMILES notation. Structures can show the parent of a compound that is named as a salt.

T1 sequence (P52702 whole entry): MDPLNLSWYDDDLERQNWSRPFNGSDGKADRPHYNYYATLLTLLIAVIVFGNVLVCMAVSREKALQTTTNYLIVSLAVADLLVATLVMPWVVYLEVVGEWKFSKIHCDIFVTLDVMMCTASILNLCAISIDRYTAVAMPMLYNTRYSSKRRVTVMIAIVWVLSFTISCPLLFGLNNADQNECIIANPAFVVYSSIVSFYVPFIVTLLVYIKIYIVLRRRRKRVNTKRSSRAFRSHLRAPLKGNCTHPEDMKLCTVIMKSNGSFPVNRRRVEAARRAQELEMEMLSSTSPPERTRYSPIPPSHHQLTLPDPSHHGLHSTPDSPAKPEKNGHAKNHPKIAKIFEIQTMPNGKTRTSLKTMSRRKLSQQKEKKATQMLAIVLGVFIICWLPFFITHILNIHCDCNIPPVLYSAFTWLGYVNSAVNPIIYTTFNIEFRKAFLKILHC

A word on the melting point: it is the temperature, or range, at which the solid turns liquid. `Fc1cnc(N2CCN(CCNC3=Nc4ccccc4OC3)CC2)nc1` (as salt: fumarate) [Compound 6, 3-(1-[2-{(4-[5-Fluoropyrimidin-2-yl])piperazin-1-yl}]ethyl)amino-2H-1,4-benzoxazine fumarate] yielded a melting point of 163 to 164 °C.

As a reminder, the Ki is a dissociation constant, usually derived from enzyme kinetics or from competition with a known ligand. `c1cnc(N2CCN(CCCCNC3=Nc4ccccc4OC3)CC2)nc1` [Compound 1, 3-(1-[4-{(4-Pyrimidin-2-yl)piperazin-1-yl}]butyl) amino-2H-1,4-benzoxazine Difumarate]: the Ki at D2 receptors was above 1000 nM.

As to `c1cnc(N2CCN(CCCNC3=Nc4ccccc4SC3)CC2)nc1` [Compound 4], at D2 receptors, the inhibition constant Ki is above 100 nM.

Turning to `Fc1cnc(N2CCN(CCNC3=Nc4ccccc4OC3)CC2)nc1` [Compound 6, 3-(1-[2-{(4-[5-Fluoropyrimidin-2-yl])piperazin-1-yl}]ethyl)amino-2H-1,4-benzoxazine fumarate], the Ki on D2 receptors is above 100 nM.

Values taken from patent publication US6432946B1, “3-aminoalkylamino-2H-1,4-benzoxazines and 3-aminoalkylamino-2H-1,4-benzothiazines: dopamine receptor subtype specific ligands” (Neurogen corporation, priority 1997, dated 2002).
